Assay results taken from patent publication US20090203685A1, “ANTI-PROLIFERATIVE COMPOUNDS FROM A 3-ARYL-COUMARINE OR 3-ARYL-QUINOLIN-2-ONE AND USES THEREOF” (EOS (ETHICAL ONCOLOGY SCIENCE) S.P.A., priority 2006, published 2009).

Assays:
Format in all cases: cell-based
[1] = tested on: prostate and lung tumor cells; experiment: Viability and cell cycle profile, conclusion for prostate and lung tumor cells; settings: 500 nM; cell cycle arrest at entry into mitosis
Experimental: (§1) Propidium iodide (PI) cannot normally cross the cell membrane; it is thus excluded by viable cells but not from dying or dead cells, having a damaged membrane, where it intercalates into double-stranded nucleic acids and fluoresces when excited at 488 nm.
(§2) The cells are pelleted by gentle centrifugation 1200 rpm/5 min/4° C., then the supernatant is discarded and replaced by 1 mL of fresh medium. One hundred microliters of propidium iodide (40 μg/mL) are added to 400 μL of the cell suspension in a FACS tube and viability is measured by flow cytometry as the percentage of cells whose fluorescence recorded on FL-3 channel is comprised between 0 and 2.
(§3) The cells are pelleted by gentle centrifugation 1200 rpm/5 min/4° C., then the supernatant is discarded and the cells are fixed with 1 mL of PBS/Ethanol 70% overnight at −20° C. The tubes are then centrifuged during 5 minutes at 1200 rpm and the supernatant is removed. The pellet is then re-suspended in 450 μL of PBS before 50 μL of RNAse (1 mg/mL) and 5 μL of propidium iodide (2 mg/mL) are added. Each tube is left 30 minutes at 37° C. and immediately analysed by flow cytometry after incubation.
(§4) Viability and cell cycle profile, tested with compound (01), at 500 nM: […]

[2] = tested on: MRC5; experiment: Cell cycle analysis, MRC5; settings: 500 nM
Experimental: as §3
A biparametric dot plot representation FL3 peak vs FL3 integer is plotted and the cells located on the diagonal are gated and analysed on a histogram representing the number of cells as a function of the FL3 peak.
To assess the relative position of cursors defining relative proportion of cells in subG1, G1, S or G2 phase of the cell cycle, G1 and G2 peaks are to be defined first:
The G1 peak is defined as the major peak in absence of treatment (generally X=200);
The G2 peak is centered on the value which is twice the value of the G1 peak (generally X=400).
Cells in subG1 phase are plotted in the part of the histogram preceding the G1 peak (generally X<200) and cells in S phase are enclosed in the area between the G1 and G2 peaks.
On this graphic, subG1, G1, S and G2/M phases of the cell cycle can thus be defined.
as §4

[3] = Viability (propidium iodide staining), MRC5; settings: human, MRC5 non-transformed fibroblasts, 500 nM
Experimental: as §1, §2, §4

[4] = tested on: MRC5; experiment: Viability (propidium iodide staining), MRC5; settings: 500 nM
Experimental: as §1, §2, §4

[5] = Viability (propidium iodide staining), U937; settings: human, U937 cells (myeloid), 500 nM
Experimental: as §1, §2, §4

[6] = tested on: lung, prostate, breast, colon, melanoma, and myeloid tumor cells; experiment: Inhibition of cell proliferation in vitro, panel of tumor cells (Example 3); settings: Homo sapiens; range over tumor cell lines, printed as 50 nM to 1 μM; 72 h; read-out: IC50s of growth inhibition
Experimental: 2C Proliferation test ViaLight® HS High Sensitivity Cytotoxicity and Cell Proliferation BioAssay Kit
This protocol allows the determination of the cytostatic and cytotoxic activities of compounds to be tested on mammalian cells in culture and was carried out essentially according to the manufacturer's recommendations.
Cells are suspended in 15 mL of their respective media and are enumerated. They are then diluted in their media in order to obtain: • 2500 cells per 90 μL per well for MRC5 cells • 5000 cells per 90 μL per well for all other cell lines. Cells are then seeded in a 96 well plate, and incubated at least 4 hours in the incubator at 37° C. in 5% CO2. […]
Then, 100 μL of test buffer (test Vialight® test buffer) is added in each well and the control plate is incubated during 2 minutes. The luminescence is read in each well. The mean luminescence for each type of cells is called T0. […]
Then, 100 μL of test buffer (test Vialight® test buffer) is added in each well and the plates are incubated during 2 minutes. The luminescence is read in each well. For each type of cell, the mean luminescence in the well not containing the compound is called C72 and the mean luminescence in well containing a given concentration of a compound to be tested is called T72. […]

COc1cc(NC(=S)NC(=O)/C=C/c2ccco2)ccc1-c1cc2ccccc2oc1=O [Compound 01, (2E)-3-(2-furyl)-N-({[3-methoxy-4-(2-oxo-2H-chromen-3-yl)phenyl]amino}carbonothioyl)acrylamide]
Effect on prostate and lung tumor cells [1]: cytostatic effect
Cell cycle profile - 72 h [2]: G2/M accumulation
viability at 48 h, 0.5 µM ([3]; 48 h): 94%
viability at 72 h, 0.5 µM ([3]; 72 h): 89%
Effect on control non-transformed cells (MRC5) [4]: unaffected
viability at 48 h, 0.5 µM ([5]; 48 h): 25%
viability at 72 h, 0.5 µM ([5]; 72 h): 6%
IC50 [6]: 50 to 1000 nM
